Entries after “also recorded” stand apart in the source; their conditions may differ.
What was measured:
Long-Evans rats [1] = test: Intra-ocular pressure monitoring after two subconjunctival injections of 0.1% BAK; format: in vivo, rat
Method: Six male 8-week-old Long-Evans rats weighing 300-350 g were used. At D0, first subconjunctival injection of 0.1% BAK (100 μL) was performed in the right eye whereas the left eye received 0.9% NaCl vehicle only as control. A second injection was performed seven days after following the same protocol. Animals were daily monitored for intra-ocular pressure using a handheld tonometer, without sedation.
Six male 8-week-old Long-Evans rats weighing 300-350 g were used. Animals were kept in pathogen-free conditions with food and water available ad libitum and housed in a 12-h light/12-h dark cycle. Ocular integrity was checked using the slit lamp biomicroscope. At D0, first subconjunctival injection of 0.1% BAK (100 μL) was performed in the right eye whereas the left eye received PBS only as control. A second injection was performed seven days after following the same protocol. Animals were daily monitored for intra-ocular pressure using a handheld tonometer (TonoLab, Medtronics, Jacksonville, Fla., USA) without sedation. All experiments were conducted in accordance with the Association for Research in Vision and Ophthalmology for the Use of Animals in Ophthalmic research.

trabecular cells = test: Ex vivo trabecular cell apoptosis (TUNEL labelling); format: in vivo, rat; settings: BAK-injected eyes vs controls, end of experiments; P<0.01
Method: At the end of the experiments, animals were euthanized and the eyes were immediately conditioned for TUNEL labelling. Eyes were fixed in 4% paraformaldehyde, embedded in an optimal cutting-temperature compound (OCT, Tissue-Tek, Miles Inc, Bayer Diagnostic, Puteaux, France) and cut into 15-μm cryosections. A terminal deoxynucleotidyl transferase-mediated dUTP nick-end labelling (TUNEL) assay (Roche Diagnostics, Meylan, France) was performed to detect apoptosis in rat ocular tissues following the manufacturer's instructions. Specimens were mounted in aqueous mounting medium with DAPI to be further analyzed using light epifluorescence microscopy.

[2] = Dose-dependent effects of subconjunctival injections of BAK on intraocular pressure; format: in vivo; settings: 3 subconjunctival injections (0.15 mL, each 48 h)
Method: A series of 3 subconjunctival injections with 0.01% BAK (n=3), 0.05% BAK (n=3), 0.1%, BAK (n=6) or the vehicle (n=4) was performed (0.15 mL, each 48 h during 6 days) in the right eye of animals. Intraocular pressure was measured using a handled tonometer every two days from D0 to D28. Intraocular pressure is expressed as the difference between the treated eye (right) and the left control eye.

Long-Evans rats [3] = test: In vivo outflow facility measurement; set-up: species or system rat; settings: six days after second injection of 0.1% BAK; infusion 0.1, 0.2, 0.3 μL/min; vs vehicle-injected control eyes
Method: Six days after the second injection of BAK, trabecular outflow facility was measured in vivo under general anaesthesia. The eyes were anteriorly canulated with a 30-G needle connected by tubing to a 1 mL syringe filled with PBS and loaded into a microdialysis infusion pump. Intraocular pressure was measured after a 10-min stabilization period for three different infusion flow rates (0.1, 0.2, and 0.3 μL/min). Aqueous humor outflow facility was calculated as the reciprocal of the slope of the respective ocular pressure/flow rate curves. Outflow facility (OF) was decreased in BAK-injected eyes as compared to vehicle-injected control eyes.
Six days after the second injection of BAK, trabecular outflow facility was measured in vivo under general anaesthesia (intraperitoneal injection of ketamine 75 mg/kg and xylazine 10 mg/kg). Briefly, the eyes were anteriorly canulated with a 30-G needle connected by tubing to a 1 mL syringe filled with PBS and loaded into a microdialysis infusion pump (World Precision instruments). Intraocular pressure was measured after a 10-min stabilization period for three different infusion flow rates (0.1, 0.2, and 0.3 μL/min). Aqueous humor outflow facility (μL/min/mmHg) was calculated as the reciprocal of the slope of the respective ocular pressure/flow rate curves.

ocular surface = test: In vivo assessment of BAK injection toxicity to the ocular surface (in vivo confocal microscopy, IVCM)
Method: In vivo confocal microscopy (IVCM) using the Heidelberg Retina Tomograph II/Rostock Cornea Module (Heidelberg Engineering GmbH, Heidelberg, Germany) laser-scanning was carried out to assess putative damage to the ocular surface. Images size was 400 per 400 hundred pixels with a lateral resolution of 1 micrometer and an axial resolution of 2 micrometers. […] IVCM scores were used to evaluate ocular surface toxicity profiles in the 4 groups (vehicle, 0.01% BAK, 0.05% BAK, and 0.1% BAK) in different histological regions (superficial epithelium, basal epithelium, anterior stroma, limb and conjunctival stroma), 30 days after the first BAK administration (see Table 1). […] [table]

benzalkonium chloride [BAK]
intra-ocular pressure after second injection (Long-Evans rats [1]; 0.1% BAK (100 μL) subconjunctival at D0 and seven days after, vs control eyes, D9 and D14, P<0.01): significantly rose and remained significantly elevated; also recorded: Significant difference; also recorded: became significant
intra-ocular pressure after first injection (Long-Evans rats [1]; 0.1% BAK (100 μL) subconjunctival, right eye, vs vehicle control eye, D7): no effect; also recorded: slight increase
trabecular apoptotic cells (TUNEL labelling) (trabecular cells): Significant difference; also recorded: increased
intraocular pressure, difference between treated eye and left control eye ([2]; 0.05% BAK, D9): significant ocular hypertension
intraocular pressure, difference between treated eye and left control eye ([2]; 0.1% BAK, D7, D11 and D14): significant increase
intraocular pressure, difference between treated eye and left control eye ([2]; other times or BAK concentrations (0.01% BAK), D0 to D28): did not show significant changes
trabecular (aqueous humor) outflow facility (Long-Evans rats [3]): decreased; also recorded: low trabecular outflow facility
IVCM subscore: limbus and conjunctiva, animals with peripheral vasodilatation (ocular surface; 0.01% BAK (n=3)): one
IVCM subscore: limbus and conjunctiva, animals with peripheral vasodilatation (ocular surface; 0.1% BAK (n=6)): three
IVCM subscore: basal epithelium (ocular surface; 4 groups (vehicle, 0.01%, 0.05%, 0.1% BAK)): unchanged
IVCM subscore: anterior stroma (ocular surface; BAK 0.1% group): trend for hyperplasia of the subbasal nerve plexi
IVCM: posterior stroma and endothelium toxicity (ocular surface; all BAK concentrations): no toxicity was found
IVCM subscore: superficial epithelium (ocular surface; all the animals): slight epithelial swelling
overall IVCM score (ocular surface toxicity) (ocular surface; vehicle, 0.01%, 0.05% and 0.1% BAK groups, 30 days after first BAK administration, Kruskal Wallis test, p>0.05): No significant difference; also recorded: No statistical difference
anterior eye abnormality / ocular surface pathological changes (ocular surface; whatever the BAK concentration): Neither anterior eye abnormality nor ocular surface pathological changes were found
